One assay has as its system Plasmodium falciparum. Nature of the assay: Antimalarial activity against chloroquine-resistant Plasmodium falciparum FcB1/Columbia infected in human erythrocytes assessed as reduction in [3H]-hypoxanthine incorporation pretreated for 24 hrs followed by [3H]-hypoxanthine addition measured after 24 hrs by liquid scintillation counting method. It counts as functional, organism-based.

A further assay deals with MRC5. Nature of the assay: Growth inhibition of human MRC5 cells after 72 hrs by resazurin dye based spectrophotometric method assay. It counts as cell-based. Conditions: MRC5, 72 h.

pIC50: −log10 of the molar value.

From ChEMBL document CHEMBL4610067, “Molecular Networking Reveals Serpentinine-Related Bisindole Alkaloids from Picralima nitida, a Previously Well-Investigated Species” (J Nat Prod, 2020) come the findings set out here.

For orientation: pIC50 means the negative decadic logarithm of the IC50, by convention in mol/L. Regarding `COC(=O)CCc1c[n+]2c(c3[nH]c4ccccc4c13)C[C@@H]1C(C(=O)OC)=CO[C@@H](C)[C@@H]1C2`, the pIC50 in the assay with Plasmodium falciparum was 5.52. Turning to `C/C=C1/C[n+]2cc(C[C@H](C(=O)OC)[C@H]3C[C@H]4c5[nH]c6ccccc6c5CCN4C/C3=C/C)c3c([nH]c4ccccc43)c2C[C@@H]1CCO`, the pIC50 in the assay with MRC5 was below 4.30; in the assay with Plasmodium falciparum, 5.02.

As for `C/C=C1/CN2CCc3c([nH]c4ccccc34)[C@@H]2C[C@@H]1[C@H](Cc1c[n+]2c(c3[nH]c4ccccc4c13)C[C@@H]1C(C(=O)OC)=CO[C@@H](C)[C@@H]1C2)C(=O)O`, the negative logarithm of the IC50 (pIC50) is below 4.30 in the assay on MRC5 and 5.28 in the assay with Plasmodium falciparum.

As to `C/C=C1/CN2CCc3c([nH]c4ccccc34)[C@@H]2C[C@@H]1[C@H](Cc1c[n+]2c(c3[nH]c4ccccc4c13)C[C@@H]1C(C(=O)OC)=CO[C@@H](C)[C@@H]1C2)C(=O)OC`, the negative logarithm of the IC50 (pIC50) in the assay on MRC5 is below 4.30; in the assay on Plasmodium falciparum, 5.59. For the compound `C/C=C1/CN2CCc3c([nH]c4ccc(O)cc34)[C@@H]2C[C@@H]1CCO`, the pIC50 in the assay on MRC5 is below 4.30; in the assay with Plasmodium falciparum, 4.00. Take `C/C=C1/CN2CCc3c([nH]c4ccccc34)[C@@H]2C[C@@H]1[C@H](Cc1c[n+]2c(c3[nH]c4ccccc4c13)C[C@H](CCO)[C@@H](CC)C2)C(=O)OC`: the pIC50 in the assay on MRC5 is below 4.30; in the assay with Plasmodium falciparum it was 5.06.

On to `C/C=C1/C[n+]2ccc3c([nH]c4ccccc43)c2C[C@@H]1CCO`, for which the results for the negative logarithm of the IC50 (pIC50) with MRC5 and in the assay with Plasmodium falciparum were below 4.30 and 4.71, respectively.
